Experimental data: ChEMBL document CHEMBL3627683, “Effective Two-Photon Excited Photodynamic Therapy of Xenograft Tumors Sensitized by Water-Soluble Bis(arylidene)cycloalkanone Photosensitizers” (J Med Chem, 2015)
Values after ≈ are worked out from the molar mass of the structure shown. Active and inactive are the calls of the source. No cut-off for these calls is given here.

What was measured:
[1] = Drug uptake in mitochondria of human HepG2 cells by MitoLite NIR staining-based CLSM analysis; format: ADME; conditions: TDE = time-dependent effect
[2] = test system: HepG2; test: Photocytotoxicity against human HepG2 cells assessed as cell viability preincubated for 4 hrs in dark condition followed by irradiation at 532 nm for 20 mins measured 24 hrs post incubation in dark condition by CCK-8 assay; format: functional, cell-based; conditions: HepG2, light or radiation study
[3] = Drug uptake in mitochondria of human HepG2 cells at 5 uM for 4 hrs by MitoLite NIR staining-based CLSM analysis; format: ADME; conditions: hepg2, 4 h
[4] = Therapeutic ratio of TC50 for human HepG2 cells to IC50 for human HepG2 cells under irradiation at […]; format: ADME, cell-based; conditions: read-out: TI
[5] = test system: HepG2; test: Photocytotoxicity against human HepG2 cells assessed as cell viability preincubated for 4 hrs in dark condition followed by irradiation at 800 nm for 10 mins measured 24 hrs post incubation in dark condition by CCK-8 assay; format: functional, cell-based; conditions: HepG2, light or radiation study
[6] = Octanol-water partition coefficient, log P of the compound; format: physicochemical
[7] = Dark toxicity in human HepG2 cells assessed as cell viability measured after 24 hrs by CCK-8 assay; format: cell-based; conditions: read-out: TC50
[8] = Solubility of the compound in PBS; format: physicochemical
[9] = Therapeutic ratio of TC50 for human HepG2 cells to IC50 for human HepG2 cells under irradiation at 800 nm; format: ADME, cell-based; conditions: read-out: TI
[10] = test system: CCRF S-180; test: Drug uptake in mouse S180 cells implanted in BALB/c mouse at 17.5 mg/kg, iv measured at 3 to 24 hrs by CSLM analysis; format: ADME, organism-based; conditions: in vivo
[11] = test system: CCRF S-180; test: Antitumor activity against mouse S180 cells implanted in BALB/c mouse assessed as tumor growth inhibition at 17.5 mg/kg, iv administered 3 hrs followed by irradiation at 800 nm for 25 mins measured every other day until 12 days […]; format: functional, organism-based
[12] = test system: CCRF S-180; test: Antitumor activity against mouse S180 cells implanted in BALB/c mouse assessed as prolongation of survival at 17.5 mg/kg, iv administered 3 hrs followed by irradiation at 800 nm for 25 mins measured by Kaplan-Meier analysis; format: functional, organism-based
[13] = test system: CCRF S-180; test: Antitumor activity against mouse S180 cells implanted in BALB/c mouse assessed as tumor growth inhibition at 17.5 mg/kg, iv administered 3 hrs followed by irradiation at 800 nm for 25 mins measured every other day until 12 days relative to control; format: functional; conditions: CCRF S-180, light or radiation study, read-out: TGI
[14] = test system: Mus musculus; test: Induction of blood vessels blockage in BALB/c mouse dorsal skinfold window chamber model at 17.5 mg/kg, iv irradiated at 800 nm for 5 mins monitored by stereomicroscopic analysis; format: functional, organism-based; conditions: Blood vessel
[15] = test system: HepG2; test: Induction of ROS generation in human HepG2 cells at 5 uM preincubated for 4 hrs followed by DCFH-DA addition for 0.5 hrs in absence of irradiation measured by CSLM; format: functional, cell-based
[16] = test system: HepG2; test: Induction of ROS generation in human HepG2 cells at 5 uM preincubated for 4 hrs followed by DCFH-DA addition for 0.5 hrs and irradiation at 800 nm for 10 mins measured by CLSM; format: functional, cell-based
[17] = test system: CCRF S-180; test: Drug uptake in mouse S180 cells implanted in BALB/c mouse at 17.5 mg/kg, iv measured within 3 hrs by CSLM analysis; format: ADME, organism-based; conditions: in vivo
[18] = test system: CCRF S-180; test: Antitumor activity against mouse S180 cells implanted in BALB/c mouse assessed as prolongation of survival at 17.5 mg/kg, iv administered 3 hrs in the absence of irradiation measured by Kaplan-Meier analysis; format: functional, organism-based

Row | Compound | Drug uptake [1] | IC50 [2] [µM] | Drug uptake [3] | selectivity ratio [4] | IC50 [5] [µM] | logP [6] | CC50 at 24 h [7] [µM] | solubility [8] [mg/mL] | selectivity ratio [9] | Drug uptake [10] | TGI [11] | Activity [12] | inhibition in vivo at 17.5 mg/kg [13] [%] | Activity [14] | Activity [15] | Activity [16] | Drug uptake [17] | Activity [18]
1 | COCCOCCOCCOCCOCCN(C)c1ccc(/C=C2\CC/C(=C\c3ccc(N(C)CCOCCOCCOCCOCCOC)cc3)C2=O)cc1 | tde | 2.59 | Active | 16 | 14.9 | 2.73 | 41.5 | > 100 | 2.79 | – | – | – | – | – | – | – | – | –
2 | CCN(CC)c1ccc(C=C2CC(=Cc3ccc(N(CCOCCOCCOCCOCCOC)CCOCCOCCOCCOCCOC)cc3)C2=O)cc1 | tde | 1.41 | Active | 25.5 | 3.93 | 3.04 | 35.9 | > 100 | 9.13 | Not Active | inactive | Active | 43 | Active | inactive | Active | Active | inactive
3 | COCCOCCOCCOCCOCCN(C)c1ccc(C=C2CC(=Cc3ccc(N(C)CCOCCOCCOCCOCCOC)cc3)C2=O)cc1 | tde | 3.07 | Active | 13.6 | 16.8 | 2.54 | 41.9 | > 100 | 2.49 | – | – | – | – | – | – | – | – | –
4 | CCN(CC)c1ccc(/C=C2\CC/C(=C\c3ccc(N(CCOCCOCCOCCOCCOC)CCOCCOCCOCCOCCOC)cc3)C2=O)cc1 | tde | 1.61 | Active | 13 | 4.66 | 3.2 | 20.9 | > 100 | 4.48 | – | – | – | – | – | – | – | – | –
5 | COCCOCCOCCOCCN(C)c1ccc(C=C2CC(=Cc3ccc(N(C)CCOCCOCCOCCOC)cc3)C2=O)cc1 | tde | 2.26 | Active | 15 | 13.2 | 2.86 | 34 | 0.3 (≈ 0.438 mM) | 2.58 | – | – | – | – | – | – | – | – | –
6 | CCN(CC)c1ccc(C=C2CC(=Cc3ccc(N(CCOCCOCCOCCOC)CCOCCOCCOCCOC)cc3)C2=O)cc1 | tde | 1.27 | Active | 18.9 | 1.87 | 3.2 | 24 | 1.8 (≈ 2.52 mM) | 12.8 | – | – | – | – | – | – | – | – | –
